Series [1] relates to hepatitis B virus-producing HepG2.2.15 cells. Description: Antiviral test: reduction of HBV DNA in HepG2.2.15 cells (dot-blot hybridization). The format is cell-based. The settings on record: HepG2.2.15, 96 h. The procedure:
The antiviral action of the compounds according to the invention was investigated by methods based on those described by M. A. Sells et al., Proc. Natl. Acad. Sci. 84, 1005-1009 (1987) and B. E. Korba et al., Antiviral Research 19, 55-70 (1992).
The antiviral tests were carried out in 96-well microtitre plates. The first vertical row of the plate received only growth medium and HepG2.2.15 cells. It served as virus control.
Stock solutions of the test compounds (50 mM) were initially dissolved in DMSO, and further dilutions were prepared in the HepG2.2.15 growth medium. The compounds according to the invention were usually pipetted in a test concentration of 100 μM (1st test concentration) in each case into the second vertical test row of the microtitre plate and subsequently diluted in twofold steps 2^10 times in growth medium+2% by weight fetal calf serum (volume 25 μl).
Each well of the microtitre plate then contained 225 μl of HepG2.2.15 cell suspension (5×10^4 cells/ml) in growth medium+2% by weight of fetal calf serum.
The test mixture was incubated at 37° C. and 5% CO2 (v/v) for 4 days.
The supernatant was then aspirated off and discarded, and the wells received 225 μl of freshly prepared growth medium. The compounds according to the invention were each added anew as 10-fold concentrated solution in a volume of 25 μl. The mixtures were incubated for a further 4 days.
The supernatants/cells were then harvested and sucked by means of a vacuum onto 96-well dot-blot chambers covered with a nylon membrane (in accordance with the manufacturer's information).
After the supernatants or cells had been transferred to the nylon membrane of the blot apparatus (see above), the supernatants of the HepG2.2.15 cells were denatured (1.5 M NaCl/0.5 N NaOH), neutralized (3M NaCl/0.5M Tris HCl, pH 7.5) and washed (2×SSC). The DNA was then baked onto the membrane by incubating the filters at 120° C. for 2-4 hours.
Detection of the viral DNA from the treated HepG2.2.15 cells on the nylon filters was easily carried out with non-radioactive, digoxigenin-labelled hepatitis B-specific DNA probes, each of which was labelled with digoxigenin, purified and employed for the hybridization in accordance with the manufacturer's information.
The prehybridization and hybridization took place in 5×SSC, 1× blocking reagent, 0.1% by weight N-lauroylsarcosine, 0.02% by weight SDS and 100 μg of herring sperm DNA. The prehybridization took place at 60° C. for 30 minutes, and the specific hybridization with 20 to 40 ng/ml of the digoxigenized, denatured HBV-specific DNA took place at 60° C. for 14 hours. The filters were then washed.
The immunological detection of the digoxigenin-labelled DNA took place in accordance with the manufacturer's information:
The filters were washed and prehybridized in a blocking reagent (in accordance with the manufacturer's information). Hybridization was then carried out with an anti-DIG antibody coupled to alkaline phosphatase for 30 minutes. After a washing step, the substrate of alkaline phosphatase, CSPD, was added, incubated with the filters for 5 minutes, then packed in plastic film and incubated at 37° C. for a further 15 minutes.
The chemiluminescence of the hepatitis B-specific DNA signals was visualized by exposing the filters to an X-ray film (incubation depending on signal strength: 10 minutes to 2 hours).
The half-maximum inhibitory concentration (IC-50, 50% inhibitory concentration) was determined as the concentration at which the hepatitis B-specific band was reduced by the compound according to the invention by 50% compared with an untreated sample.

The subject of a further series is HepG2.2.15 cells. As to the kind of experiment: Cytotoxicity determination in HepG2.2.15 cells. The series is classed as cell-based. The following applies: 50% cytotoxicity. The source says: Before harvesting the supernatants and/or cells to determine the antiviral effect, the HepG2.2.15 cells were examined under the light microscope or by means of biochemical detection methods (for example Alamar Blue stain or Trypan Blue stain) for cytotoxic changes.
Substance-induced cytotoxic or cytostatic changes in the HepG2.2.15 cells were detected, for example, under the light microscope as changes in cell morphology. Such substance-induced changes in the HepG2.2.15 cells compared with untreated cells were visible, for example, as cytolysis, vacuolation or altered cell morphology.
The tolerability of some of the compounds according to the invention was additionally tested on other host cells such as, for example, HeLa cells, primary human peripheral blood cells or transformed cell lines such as H-9 cells.
As a rule, the compounds according to the invention were tolerated up to concentrations of 10 μM (Tox. −50).

Molecules are shown by their SMILES. Bounds are passed on as bounds.

Take `Cc1cc(NC(=O)c2c(C)noc2C)ccc1F` [Example 2, N-(4-Fluoro-3-methylphenyl)-3,5-dimethylisoxazole-4-carboxamide]: the concentration for half-maximal inhibition (IC50) in series [1] is 200 nM. Besides, the Tox-50 in the series on HepG2.2.15 cells was >100 μM/l.
For `CCc1onc(C)c1C(=O)Nc1ccc(F)c(Cl)c1` [Example 12], in that order: 500 nM and >100 μM/l.
For `Cc1cc(NC(=O)c2c(C)noc2C(F)(F)F)ccc1F` [Example 16], in that order: 750 nM and >100 μM/l.
`CCCc1onc(C)c1C(=O)Nc1cccc(C)c1` [Example 21]: in series [1], 1000 nM corresponded to half-maximal inhibition (IC50). Moreover, the Tox-50 in the series on HepG2.2.15 cells is recorded as >100 μM/l.
`Cc1cccc(NC(=S)c2c(C)noc2C)c1` [Example 29] gave an IC50 in series [1] of 4000 nM. The Tox-50 in the series with HepG2.2.15 cells was >100 μM/l.
Consider `Cc1oncc1C(=O)Nc1ccc(C(F)(F)F)cc1` [Leflunamide, N-(4-trifluoromethylphenyl)-5-methylisoxazole-4-carboxamide, reference compound], for which the IC50 in series [1] was > 70000 nM. The Tox-50 in the series on HepG2.2.15 cells is recorded as 70 μM/l.

As usually defined, the IC50 is the concentration that gives 50% inhibition. The low end stands for greater potency in that assay, the high end for weaker potency in that assay.

Values taken from patent US20030187028A1, “Medicament for viral diseases” (priority 2000, published 2003).
